Results reported in patent US20260242440A1, “NOVEL MEANS TO MODULATE NMDA RECEPTOR-MEDIATED TOXICITY” (FUNDAMENTAL PHARMA GMBH, priority 2018, published 2026).
“Also recorded” adds a separate entry of the source.

Key:
[1] = tested on: primary mouse hippocampal neurons; assay: NMDA receptor induced mitochondrial membrane potential breakdown (Rh123 imaging); assay type: cell-based
Protocol: Coverslips with primary cultured neurons (DIV15-DIV17) were used to examine mitochondrial membrane potential (Ψm) and mitochondrial calcium signalling, which was performed at room temperature in CO2-independent culture medium (CICM) containing: 10 mM HEPES, 140 mM NaCl, 2.5 mM KCl, 1.0 mM MgCl2, 2.0 mM CaCl2, 1.0 mM Glycine, 35.6 mM Glucose and 0.5 mM Na-pyruvate. All images were obtained by a cooled-CCD camera (iXon 887, Andor) on an upright microscope (BX51WI, Olympus). Fluorescence excitation was provided by a xenon arc lamp in combination with an excitation filter wheel (MT-20, Olympus). Data were collected using Cell^R software (Olympus), analysed using ImageJ and quantified using Igor Pro (WaveMetrics). Ψm was detected with the small molecule fluorescence indicator Rhodamine 123 (Rh123; Molecular Probe™, R302). Primary cultured neurons were loaded with 4.3 μM Rh123 in CICM at 37° C. for 30 min, then washed and left in CICM for another 30 min before recording. At the end of each experiment, the mitochondrial uncoupler FCCP (5 μM, Sigma-Aldrich, Cat #C2920) was applied to the cells to reach the maximal Rh123 fluorescence intensity. Rh123 was imaged with 470±20 nm excitation and 525±25 nm emission wavelengths using a 20× objective. Rh123 fluorescence intensity was measured in the nucleus to minimize contamination from cytosolic mitochondrial signal and Rh123 fluorescence intensity was normalized to the maximum FCCP signal for each region of interest.
Mitochondrial dysfunction is a hallmark of NMDA receptor excitotoxicity and an early event en-route to neuronal death. A parameter that is often used to assess mitochondrial integrity is the mitochondrial membrane potential. A breakdown of the mitochondrial membrane potential can be observed after exposure of hippocampal or cortical neurons to NMDA and indicates excitotoxicity-associated mitochondrial dysfunction. Therefore, the inventors investigated the effect of polypeptides comprising the sequence of SEQ ID NO:5 or SEQ ID NO: 54 as well as of the control TRMP5 sequence (SEQ ID NO: 55) on mitochondrial membrane potential break down in primary mouse hippocampal neurons. Excitotoxicity leading to mitochondrial membrane potential break down was induced with bath application of 20 μM NMDA. After 11 minutes, the mitochondrial uncoupler, carbonylcyanide-p-trifluoromethoxyphenylhydrazone (FCCP) was added. Addition of FCCP leads to break-down of the mitochondrial membrane potential and served as a control of the test system.

[2] = tested on: HEK293 cells; assay: Luminescent cytotoxicity assay, HEK293 cells transfected with GRIN1 and GRIN2A or GRIN2B; assay type: cell-based, human; settings: compound added 6 h after transfection; cell death 48 h after transfection
Protocol: HEK293 cells were cultured in Dulbecco's Modified Eagle Medium (DMEM, Gibco™ 41965-039) supplement with 10% Fetal Bovine Serum (FBS, Gibco™, 10270), 1% Sodium Pyruvate (Gibco™, 11360070), 1% MEM NEAA (GibcoT^M, 11140035) and 0.5% Penicillin-Streptomycin (P-S; Sigma, P0781) and Passagel5-25 were used for experiments.
To test the cytotoxicity of compounds according to the present invention, HEK293 cells (70-80% confluent) were transfected 24 hours after plating with both GRIN1 and GRIN2 Å or GRIN2B, respectively (1:[…]) with Lipofectamine 2000 according to manufacturer's instructions. The relative number of dead cells in the population at the indicated time points after transfection was measured with the CytoTox-Glo™ Cytotoxicity assay (Promega, G9290) according to manufacturer's instruction with minor modification. Briefly, 10% of total medium were mixed with 10 μL AAF-amino luciferin to reach a final volume at 200 μL with water, the dead cell relative luminescence units (DRLU) was measured by GloMax (Promega) in a 96 well white bottom polystyrene microplate (Corning Costar®, 3912). After all the measurements, lysis reagents have been added to the cells and 10% of lysate was used for the total cell relative luminescence units (TRLU) measurement. Cell death was calculated by the following equations: […]
For drug testing, P4, P8, P9, P13 and P15 were added to the medium at indicated concentration 6 h after transfection. DRLU, TRLU and cell death were measured and calculated 48 h after transfection.

[3] = tested on: NMDA receptor; assay: NMDA-induced calcium transients (Fura2 calcium imaging); assay type: cell-based, mouse; settings: hippocampal neurons, 6 min NMDA (20 μM) application
Protocol: In a further experiment, the impact of P4 and P15 on NMDA-induced calcium transients was assessed. Briefly, for calcium imaging, primary hippocampal neurons on coverslips were loaded with the cell-permeable, high-affinity ratiometric calcium indicator Fura2-AM (Invitrogen™ F1221), at 1 μM in CO2-independent culture medium (CICM; CICM contains: 10 mM HEPES, 140 mM NaCl, 2.5 mM KCl, 1.0 mM MgCl2, 2.0 mM CaCl2, 1.0 mM Glycine, 35.6 mM Glucose and 0.5 mM Na-pyruvate) for 30 min at 37° C., then washed and left in CICM for another 30 min to allow for de-esterification. Fura2 was excited at 340/11 nm and 380/11 nm, and fluorescence emission was obtained from a 40× UV compatible objective (LUMPLFLN, Olympus) through a 510/20 nm emission filter. For quantification, ImageJ was used to calculate average background-subtracted fluorescence intensities for 340 and 380 nm excitation (F340 and F380) from each neuron. Intracellular calcium levels were plotted as F340/F380 ratios over time, from which the NMDA response amplitude and area under the curve (AUC) was calculated to quantify NMDA-induced calcium influx.

[4] = target: T1, TRPM4 channel (Homo sapiens, UniProt Q8TD43); assay: TRPM4 channel function, whole-cell patch clamp in PC3 cells; assay type: cell-based; settings: 10 μM compound, pre-incubated 30-60 min
T1 construct: PC3 cells are known to express TRPM4 channels; endogenous in cells; host or cells: PC3 prostate cancer cell line
T1 sequence (Q8TD43 whole entry): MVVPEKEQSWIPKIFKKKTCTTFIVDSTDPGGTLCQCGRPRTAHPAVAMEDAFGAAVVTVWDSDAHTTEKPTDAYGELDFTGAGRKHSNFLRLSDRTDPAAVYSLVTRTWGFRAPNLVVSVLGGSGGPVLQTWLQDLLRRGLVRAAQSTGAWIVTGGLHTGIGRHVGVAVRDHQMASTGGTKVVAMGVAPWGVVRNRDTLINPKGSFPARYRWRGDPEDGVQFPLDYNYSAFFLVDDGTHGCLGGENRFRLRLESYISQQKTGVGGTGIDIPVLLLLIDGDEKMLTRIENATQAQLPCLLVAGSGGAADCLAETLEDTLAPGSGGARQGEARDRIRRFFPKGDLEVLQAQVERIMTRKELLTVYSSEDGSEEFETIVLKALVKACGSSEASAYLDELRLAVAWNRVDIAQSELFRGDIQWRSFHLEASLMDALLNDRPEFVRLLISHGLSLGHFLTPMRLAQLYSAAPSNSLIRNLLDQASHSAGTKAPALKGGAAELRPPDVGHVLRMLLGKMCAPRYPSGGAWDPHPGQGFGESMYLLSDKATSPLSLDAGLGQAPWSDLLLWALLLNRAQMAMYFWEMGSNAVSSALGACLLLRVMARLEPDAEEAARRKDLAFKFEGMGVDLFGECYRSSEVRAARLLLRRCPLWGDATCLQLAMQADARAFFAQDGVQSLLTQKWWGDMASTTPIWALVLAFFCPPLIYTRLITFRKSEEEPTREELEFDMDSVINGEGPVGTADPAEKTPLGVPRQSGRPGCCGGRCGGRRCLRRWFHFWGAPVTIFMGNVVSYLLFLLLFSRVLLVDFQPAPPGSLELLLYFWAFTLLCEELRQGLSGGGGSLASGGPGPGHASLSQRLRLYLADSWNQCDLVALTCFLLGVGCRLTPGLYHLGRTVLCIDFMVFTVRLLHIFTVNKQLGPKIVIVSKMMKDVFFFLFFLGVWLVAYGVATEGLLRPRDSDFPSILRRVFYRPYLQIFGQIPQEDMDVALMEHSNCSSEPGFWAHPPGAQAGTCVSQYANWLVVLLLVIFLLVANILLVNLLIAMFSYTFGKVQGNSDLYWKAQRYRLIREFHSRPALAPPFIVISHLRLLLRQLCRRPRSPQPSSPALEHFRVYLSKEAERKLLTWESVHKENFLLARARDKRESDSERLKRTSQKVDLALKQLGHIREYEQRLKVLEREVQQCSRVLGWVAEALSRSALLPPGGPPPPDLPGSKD
Text: To assess any direct impact of compound P4 and compound P15 on TRPM4 channel function independent of NMDA receptors, the inventors used the prostate cancer cell line PC3 and patch clamp recordings. PC3 cells are known to express TRPM4 channels (C. Holzmann et al., Oncotarget. 6, 41783-93 (2015)). TRPM4 currents in turn are characterized by their calcium dependence and outward rectification (P. Launay et al., Cell. 109, 397-407 (2002)). Briefly, whole-cell patch clamp recordings were made from PC3 cells plated on 12 mm round coverslips secured with a platinum ring in a recording chamber (OAC-1, Science Products GmbH) mounted on a fixed-stage upright microscope (BX51WI, Olympus). […] Patch electrodes (3-4 MΩ) were made from 1.5 mm borosilicate glass and filled with cesium-based solutions (in mM: CsCl, 145; NaCl, 8; HEPES, 10; MgCl2, 1; plus either EGTA, 0.2 for a free Ca^2+ concentration of zero; or EGTA, 10 and CaCl2), 9.4 for a calculated free Ca^2+ concentration of 10 μM; Maxchelator, Stanford University). Recordings were made with a Multiclamp 700B amplifier, digitized through a Digidata 1550B and acquired and analyzed using pClamp 10 software (Molecular Devices). Access resistance (range: 10-20 MΩ) was monitored regularly during voltage clamp recordings and data was rejected if changes greater than 20% occurred.

[5] = tested on: primary mouse hippocampal neurons; assay: NMDA induced cell death (excitotoxicity) in cultured primary neurons; assay type: cell-based; settings: polypeptide expressed via rAAV infection on DIV3; NMDA 20 μM for 10 min; cell death assessed 24 h later
Protocol: Primary mouse hippocampal and cortical neurons were prepared and maintained as known. Briefly, hippocampi or cerebral cortex from P0 C57Bl/6NCrl mice were dissociated and plated at a density of 1.2*105/cm^2 in Growth Medium (GM), consisting of Neurobasal A medium (Gibco™, 10888022), 2% serum free B27™ Supplement (Gibco™, 17504044), 1% rat serum (Biowest, S2150), 0.5 mM L-Glutamine (Sigma, G7513) and 0.5% P-S. Cytosine β-D-arabinofuranoside (AraC; Sigma, C1768; 2.8 μM) was added on DIV3 to prevent the proliferation of glial cells. From DIV8, half of the medium was replaced by GM without Rat serum every 48 h until being used for experiments. 24 h before experiments, GM was replaced with transfection medium (10 mM HEPES, pH 7.4, 114 mM NaCl, 26.1 mM NaHCO3, 5.3 mM KCl, 1 mM MgCl2, 2 mM CaCl2, 30 mM glucose, 1 mM glycine, 0.5 mM C3H3NaO3, and 0.001% phenol red and 10% of phosphate-free Eagle's minimum essential medium, supplemented with 7.5 µg/ml insulin, 7.5 µg/ml transferrin and 7.5 ng/ml sodium selenite (ITS Liquid Media Supplement, Sigma-Aldrich Cat #I3146)). Primary hippocampal neurons were used in live cell imaging, cell death experiments, while cortical neurons were used for mRNA and protein extraction analysis.
All viral particles were produced and purified as known in the art. All TRPM4 derived peptides (comprising SEQ ID NO:5, or any of SEQ ID NO:46 to SEQ ID NO:56) were cloned into rAAV backbone by PCR. shRNA against mouse TRPM4 were designed by BLOCK-iT™ RNAi Designer from Thermofisher to target: […] (SEQ ID NO:44, shTRPM4-1) and […] (SEQ ID NO:45, shTRPM4-2). Scramble shRNA (shSCR) has been tested and proven to have no known targets in mice. GPI anchor ([…], e.g. used in SEQ ID NO:53) sequences were synthesized by Eurofins Genomics (Ebersberg, Germany). All primers were synthesized and all plasmids were confirmed by sequencing by Eurofins Genomics.
In order to investigate the role of TRPM4 in NMDA receptor mediated excitotoxicity, the inventors used RNA interference strategies to knock down TRPM4. Cultured primary mouse hippocampus neurons were infected on day 3 in vitro (DIV3) with recombinant adeno-associated viruses (rAAVs) providing for expression of a scramble control (shSCR), shTRPM4-1 (SEQ ID NO:44) or shTRPM4-2 (SEQ ID NO:45). On DIV15-16, neurons were challenged with N-methyl-D-aspartate (NMDA, 20 μM) for 10 min. After NMDA wash out, neurons were kept in the culture medium for another 24 h before analysis. […] Evidently, TRPM4 is thus involved in the process of NMDA receptor mediated excitotoxicity.
In a next step, the inventors tried to identify regions in the mouse TRPM4 protein potentially involved in NMDA receptor mediated excitotoxicity. For this purpose, polypeptide fragments of mouse TRPM4 protein were generated and their impact on NMDA induced excitotoxicity analysed. To do so, primary neuron cultures were infected with respective rAAVs on DIV3, challenged with NMDA (20 μM) for 10 min on DIV17 and cell death assessed 24 hours later.
The sequence of SEQ ID NO:5 in TRPM4 is located in vivo just beneath the plasma membrane. […] To test this hypothesis, the inventors created a fusion protein comprising SEQ ID NO:5 and a GPI anchor, SEQ ID NO:57. The sequence of the fusion is given in SEQ ID NO:53. Neurons infected with rAAV and expressing SEQ ID NO:47 (control) or SEQ ID NO:53 were exposed to NMDA (20 μM) for 10 min on DIV15-16, with cell death assessed after 24 h.
In a next step, the inventors created a mutant of SEQ ID NO:5, in which two adjacent phenylalanine residues where substituted by tyrosine residues (SEQ ID NO: 54). […] TRPM5 is a protein related to but nonetheless distinct to TRPM4. The region in TRPM5 corresponding to SEQ ID NO:5, SEQ ID NO:55, shares only about 60% sequence identity with SEQ ID NO:5. Neurons were infected on DIV3 with rAAVs expressing SEQ ID NO: 5, SEQ ID NO: 54 or SEQ ID NO:55 and exposed to NMDA (20 μM) for 10 min on DIV17, with cell death assessed 24 h later. […]

[6] = tested on: synaptic NMDA receptor; assay: Gabazine induced calcium influx into mitochondria (synaptic NMDA receptor signalling); assay type: cell-based, mouse; settings: primary cultured neurons, polypeptides expressed via rAAV
Protocol: Gabazine induced mitochondrial Ca^2+ response in primary cultured neurons is recorded and analysed as described in a previous study (Qiu et al, Nat Commun. 2013; 4:2034, incorporated herewith by reference) using a FRET calcium indicator 4mtD3cpv that specifically located to mitochondria. Briefly, mitochondrial Ca^2+ levels were detected with FRET-based and mitochondrial targeted Ca^2+ indicator 4mtD3cpv. 4mtD3cpv were excited at 430±12 nm (CFP) and 500±10 nm (YFP), and emission of CFP (470±12 nm) and YFP (535±15 nm) were separated and filtered using a DualView beam splitter (AHF Analysentechnik and MAG Biosystems), and all fluorescence images were recorded through a 20× water-immersion objective at 1 Hz.
In a further experiment the inventors assessed the impact of the polypeptide comprising the sequence of SEQ ID NO:5 and SEQ ID NO: 54, respectively, on Gabazine induced calcium influx (mitochondria), a measure of synaptic NMDA receptor signalling. The experiment was carried out in primary cultured neurons as described above.

Row | Compound | protection of mitochondrial membrane potential from NMDA excitotoxicity ([1]; compound applied 30 min prior to recording, bath application of NMDA) | NMDA receptor induced cell death [2] | NMDA-induced calcium transients [3] | TRPM4-like outwardly rectifying current activated by 10 μM Ca2+ [4] | protection against NMDA induced cell death (neuroprotective effect) [5] | NMDA receptor induced mitochondrial membrane potential breakdown ([1]; polypeptides expressed via rAAV, bath application of 20 μM NMDA) | Gabazine induced calcium influx into mitochondria [6]
1 | NCC1CCN(CC(=O)Nc2cc(Cl)c(Cl)cc2Cl)C1 (stereo not shown) [P15] | significantly protect mitochondrial membrane potential from NMDA excitotoxicity | reduced the level of NMDA receptor induced cell death | neither compound P4 nor compound P15 reduced; also recorded: neither compound P4 nor P15 reduced | not affected |  |  | 
2 | SEQ ID NO:54: derivative of SEQ ID NO:5, having a conservative substitution of two Y for two F (NSEERAARLLLRRCPLWGEATCLQLAMQADARAYYAQDGVQSLLTQKWWGEMDSTTP; Mutant of SEQ ID NO:5 with F34Y and F35Y) |  |  |  |  | only slightly less effective in reducing NMDA receptor-mediated cell toxicity than SEQ ID NO:5 | capable of preventing NMDA receptor induced mitochondrial membrane potential breakdown | neither of these polypeptides affects synaptic NMDA receptor signalling; also recorded: not affected
